Test results as given in article PMC10580381 (ACS Pharmacology & Translational Science, 2023).

Experiments:
H1975 cells [1] = test: Wound healing assay; type: cell-based, human; details: up to 48 h
From the text: After the cells had grown to about 80% confluence, a physical gap was created on the cell monolayer by scratching with a pipet tip. […] The scratch closure rate was estimated by the change in the wound width over time. It was presented as the relative gap width (%) by dividing the average distance between the two margins of the scratch at the indicated time by the initial distance at the start of the wound healing assay.

H1975 cells [2] = test: cells; details: Homo sapiens, NCI-H1975, read-out: cell viability (%)
H1975 cells [3] = test: Transwell invasion assay; type: cell-based, human; details: flunarizine 5 or 10 μM, 48 h
E-cadherin = test: Western blot of E-cadherin in H1975 cells; type: cell-based, human; details: concentration-dependent
Bim (BCL2L11) = test: Real-time PCR of Bim expression in H1975; type: cell-based, human; details: H1975, 24 h, flunarizine 2.5, 5, or 10 μM or SAHA 0.25, 0.5, or 1 μM; all concentrations tested
Method: (§1) Reverse transcription was performed using 1 μg of total RNA sample with the PrimeScript First Strand cDNA Synthesis Kit (TaKaRa Biomedical Technology) at 37 °C for 10 min. The cDNA was then amplified by real-time PCR to determine the relative expression of p27^Kip1 and BIM using the KAPA SYBR FAST qPCR kit (KapaBiosystems, Wilmington, Massachusetts) with a LightCycler 480 Instrument I instrument (Roche Applied Science, Indianapolis, Indiana). The house-keeping gene GAPDH was also measured for normalization. Specific primer sequences used in the PCR reactions are p27^Kip1, forward 5′-[…]-3′ and reverse 5′-[…]-3′; Bim, forward 5′-[…]-3′ and reverse 5′-[…]-3′; and GAPDH, forward 5′-[…]-3′ and reverse 5′-[…]-3′. The PCR temperature program was set at 95 °C for 5 min, followed by 35 cycles of 95 °C for 10 s and 60 °C for 10 s. The fluorescent signal was detected at the end of the PCR elongation step of every cycle to keep track of the amount of amplified DNA. ΔCt was calculated by subtracting the Ct of GAPDH from the Ct of Bim or p27^Kip1. Fold change in gene expression was analyzed by the 2^–ΔΔCt method.

p27^Kip1 (CDKN1B) = test: Real-time PCR of p27^Kip1 expression in H1975; type: cell-based, human; details: H1975, 24 h, flunarizine 2.5, 5, or 10 μM or SAHA 0.25, 0.5, or 1 μM; all concentrations tested
Method: as §1

recombinant human HDAC8 = target: T1, recombinant human HDAC8 (Homo sapiens, UniProt Q9BY41); test: biochemical
T1 sequence (Q9BY41 1-377): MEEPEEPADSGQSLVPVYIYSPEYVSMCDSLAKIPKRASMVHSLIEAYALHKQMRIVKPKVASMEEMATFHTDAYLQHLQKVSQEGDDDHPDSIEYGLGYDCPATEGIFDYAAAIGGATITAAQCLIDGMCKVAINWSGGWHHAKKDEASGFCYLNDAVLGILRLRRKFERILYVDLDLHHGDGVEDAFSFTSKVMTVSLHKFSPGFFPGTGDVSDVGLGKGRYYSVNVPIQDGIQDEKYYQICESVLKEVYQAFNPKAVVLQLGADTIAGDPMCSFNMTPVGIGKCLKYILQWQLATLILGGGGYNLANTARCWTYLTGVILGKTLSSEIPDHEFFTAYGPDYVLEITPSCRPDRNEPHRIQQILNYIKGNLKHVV

H1650 cells = test: cells; details: Homo sapiens, NCI-H1650, read-out: cell viability (%)
recombinant human HDAC1 = recombinant human HDAC1 (Homo sapiens, UniProt Q13547); test: biochemical
recombinant human HDAC1, sequence (Q13547 whole entry): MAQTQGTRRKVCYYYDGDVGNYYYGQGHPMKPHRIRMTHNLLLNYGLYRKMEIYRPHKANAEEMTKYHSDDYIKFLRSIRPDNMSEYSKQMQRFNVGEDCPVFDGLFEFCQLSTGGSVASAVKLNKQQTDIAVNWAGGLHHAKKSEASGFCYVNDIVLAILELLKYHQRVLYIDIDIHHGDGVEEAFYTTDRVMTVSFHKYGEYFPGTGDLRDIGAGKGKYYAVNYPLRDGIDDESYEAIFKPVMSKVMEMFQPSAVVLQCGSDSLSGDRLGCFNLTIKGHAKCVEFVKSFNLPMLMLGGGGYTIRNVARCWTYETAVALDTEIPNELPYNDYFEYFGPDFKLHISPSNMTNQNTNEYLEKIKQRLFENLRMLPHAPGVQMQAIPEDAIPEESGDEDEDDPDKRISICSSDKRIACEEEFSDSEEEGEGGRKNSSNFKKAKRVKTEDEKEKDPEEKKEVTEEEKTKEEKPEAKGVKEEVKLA

[4] = in vivo; cited from earlier work

With `Fc1ccc(C(c2ccc(F)cc2)N2CCN(C/C=C/c3ccccc3)CC2)cc1` [flunarizine] the cancer cell migration (H1975 cells [1]) was “inhibited the cell migration ability”, the viability at 2.5 µM (H1975 cells [2]) was 95 ± 8% and the viability at 5 µM (H1975 cells [2]) was 94 ± 6%. For the same compound, the viability at 10 µM (H1975 cells [2]) was 86 ± 7%, the cancer cell invasion (H1975 cells [3]) was “inhibition” and the viability (H820 cells) was 89 ± 5%. The E-cadherin expression (E-cadherin) was “upregulate”, the Bim expression (Bim (BCL2L11)) was “significantly increase” and the “p27^Kip1 expression” value (p27^Kip1 (CDKN1B)) was “significantly increase”. The IC50 (recombinant human HDAC8) was 5.5 ± 0.45 µM, the viability at 2.5 µM (H1650 cells) was 93 ± 4% and the viability at 5 µM (H1650 cells) was 92 ± 5%. For the same compound, the viability at 10 µM (H1650 cells) was 87 ± 6%, the IC50 (recombinant human HDAC1) was 0.285 ± 0.015 µM and the elimination half-life [4] was “around 18 days”. The “effect on cell viability of BEAS-2B” value (BEAS-2B) was “did not appreciably affect the cell viability”.
